Measured values reported in US20230363383A1, “COMBINATIONS OF CHLOROACETANILIDE HERBICIDES WITH SAFENERS” (UPL DO BRASIL INDUSTRIA E COMERCIO DE INSUMOS AGROPECUARIOS …, priority 2020, published 2023).
Where two headings read alike, the source gives them in different places.

What was measured:
Format in all cases: in vivo
wheat crop [1] = details: seed treatment, average of 4 replications
Source text: (§1) Mode of application for herbicides was spray and they were applied to soil after sowing of untreated seeds or seeds treated with safeners.
as §1

wheat crop [2] = details: spray to soil; for % Phytotoxicity 7 DAA: 7 days after administration; for % Phytotoxicity 7 DAA / % Phytotoxicity 14 DAA / % Phytotoxicity 21 DAA / % Phytotoxicity 28 DAA / % Phytotoxicity 35 DAA: average of 4 replications; for % Phytotoxicity 14 DAA: 14 days after administration; for % Phytotoxicity 21 DAA: 21 days after administration; for % Phytotoxicity 28 DAA: 28 days after administration; for % Phytotoxicity 35 DAA: 35 days after administration; for Plants Standing: untreated check 8.0 (Table 5) / 8.3 (Table 6)
Procedure: (§2) Experiments were carried out to evaluate the phytotoxicity, effect on plant height and effect on number of plants standing after treatments with combinations of one or more Chloroacetanilide herbicides with one or more safeners.
(§3) Application method was spray and applications were made to soil.
as §3

Lolium multiflorum = assay: % weed control of Lolium multiflorum, Propisochlor alone or with safener sprayed to soil; design: concentration or dose not given beside the values; details: spray to soil, average of 4 replications; for % Weed Control 7 DAA: 7 days after administration; for % Weed Control 14 DAA: 14 days after administration; for % Weed Control 21 DAA: 21 days after administration; for % Weed Control 28 DAA: 28 days after administration; for % Weed Control 35 DAA: 35 days after administration
Procedure: as §2
Below table gives summary of the formulation details and application details of Propisochlor and Mefenpyr-diethyl, Isoxadifen-ethyl and Cloquintocet-mexyl that were used in combination with Propisochlor for treatments. Application method was spray and applications were made to soil.
Below table gives summary of the formulation details and application details of Propisochlor and Dichlormid, Fenclorim, Benoxacor, Flurazole and Fluxofenim that were used in combination with Propisochlor for treatments. Application method was spray and applications were made to soil.
Below table gives summary of % weed control shown by untreated check, Propisochlor alone and combination of Propisochlor with Mefenpyr-diethyl, Isoxadifen-ethyl and Cloquintocet-mexyl at different application rates. % weed control was checked for weed Lolium multiflorum.
Below table gives summary of % weed control shown by untreated check, Propisochlor alone and combination of Propisochlor with Dichlormid, Fenclorim, Benoxacor, Flurazole and Fluxofenim at different application rates. % weed control was checked for weed Lolium multiflorum.

For N#Cc1nn(-c2c(Cl)cc(C(F)(F)F)cc2Cl)c(N)c1[S+]([O-])C(F)(F)F (stereo not shown) [Treatment 1b], the “Plant height 15 DAA” value (wheat crop [1]; Table 11, wheat crop, 15 DAA) was 10.8, the “Standing Plants 15 DAA” value (wheat crop [1]; Table 11, wheat crop, 15 DAA) was 22.5 and the “Plant height 29 DAA” value (wheat crop [1]; Table 11, wheat crop, 29 DAA) was 10.8. The “Standing Plants 29 DAA” value (wheat crop [1]; Table 11, wheat crop, 29 DAA) was 33.8, the “% Phytotoxicity 7 DAA” value (wheat crop [1]; wheat crop, Propisochlor sprayed to soil after sowing, 7 DAA) was 0% and the “% Phytotoxicity 14 DAA” value (wheat crop [1]; wheat crop, Propisochlor sprayed to soil after sowing, 14 DAA) was 0%. For the same compound, the “% Phytotoxicity 21 DAA” value (wheat crop [1]; wheat crop, Propisochlor sprayed to soil after sowing, 21 DAA) was 0%, the “% Phytotoxicity 28 DAA” value (wheat crop [1]; wheat crop, Propisochlor sprayed to soil after sowing, 28 DAA) was 0% and the “% Phytotoxicity 35 DAA” value (wheat crop [1]; wheat crop, Propisochlor sprayed to soil after sowing, 35 DAA) was 0%.
With CCc1cccc(C)c1N(COC(C)C)C(=O)CCl [Treatment 2a] the “% Phytotoxicity 7 DAA” value (wheat crop [2]) was 98.0%, the “% Phytotoxicity 14 DAA” value (wheat crop [2]) was 99.0% and the “% Phytotoxicity 21 DAA” value (wheat crop [2]) was 99.5%. The “% Phytotoxicity 28 DAA” value (wheat crop [2]) was 99.5%, the “% Phytotoxicity 35 DAA” value (wheat crop [2]) was 99.0% and the “Plants Standing” value (wheat crop [2]) was 0.5. For the same compound, the “% Weed Control 7 DAA” value (Lolium multiflorum) was 100%, the “% Weed Control 14 DAA” value (Lolium multiflorum) was 100% and the “% Weed Control 21 DAA” value (Lolium multiflorum) was 100%. For the same compound, the “% Weed Control 28 DAA” value (Lolium multiflorum) was 100% and the “% Weed Control 35 DAA” value (Lolium multiflorum) was 100%.
For N#Cc1nn(-c2c(Cl)cc(C(F)(F)F)cc2Cl)c(N)c1[S+]([O-])C(F)(F)F (stereo not shown) [Treatment 9b], the “Plant height 15 DAA” value (wheat crop [1]; Table 12, 15 DAA) was 23.3, the “Standing Plants 15 DAA” value (wheat crop [1]; Table 12, 15 DAA) was 10.8 and the “Plant height 29 DAA” value (wheat crop [1]; Table 12, 29 DAA) was 34.3. The “Standing Plants 29 DAA” value (wheat crop [1]; Table 12, 29 DAA) was 10.8, the “% Phytotoxicity 8 DAA” value (wheat crop [1]; wheat crop, Propisochlor sprayed to soil after sowing, 8 DAA) was 0% and the “% Phytotoxicity 15 DAA” value (wheat crop [1]; wheat crop, Propisochlor sprayed to soil after sowing, 15 DAA) was 0%. The “% Phytotoxicity 22 DAA” value (wheat crop [1]; wheat crop, Propisochlor sprayed to soil after sowing, 22 DAA) was 0%, the “% Phytotoxicity 29 DAA” value (wheat crop [1]; wheat crop, Propisochlor sprayed to soil after sowing, 29 DAA) was 0% and the “% Phytotoxicity 36 DAA” value (wheat crop [1]; wheat crop, Propisochlor sprayed to soil after sowing, 36 DAA) was 0%.
CCc1cccc(C)c1N(COC(C)C)C(=O)CCl [Treatment 10a] was tested, and the “% Phytotoxicity 7 DAA” value (wheat crop [2]) was 99.5%, the “% Phytotoxicity 14 DAA” value (wheat crop [2]) was 100% and the “% Phytotoxicity 21 DAA” value (wheat crop [2]) was 100%. The “% Phytotoxicity 28 DAA” value (wheat crop [2]) was 100%, the “% Phytotoxicity 35 DAA” value (wheat crop [2]) was 100% and the “Plants Standing” value (wheat crop [2]) was 0.0. The “% Weed Control 7 DAA” value (Lolium multiflorum) was 100.0%, the “% Weed Control 14 DAA” value (Lolium multiflorum) was 100.0% and the “% Weed Control 21 DAA” value (Lolium multiflorum) was 100.0%. The “% Weed Control 28 DAA” value (Lolium multiflorum) was 99.3% and the “% Weed Control 35 DAA” value (Lolium multiflorum) was 99.0%.
